Experimental data published in US4652566A, “Benzofuran derivatives, processes for preparing the same and antihypertensive agents containing the same” (Kaken Pharmaceutical Co., Ltd., priority 1984, dated 1987).
Where a name gives a salt, the structure may show the parent alone.

Assays:
[1] = Antihypertensive effect and effect on heart rate in spontaneously hypertensive rat (SHR); format: in vivo; conditions: po, single dose
Protocol: [Antihypertensive effect and effect on a heart rate on rat suffering from a spontaneously hypertensive rat (SHR)]
A blood pressure was measured under no anesthetic condition by means of an apparatus for recording a blood pressure of a tail artery and a heart rate (Riken Kaihatsu Co., Ltd.) (PS-802) and at the same time a heart rate was also measured.
Each of test compounds was dissolved or suspended in an aqueous solution containing 5% by weight of acasia and the obtained solution or suspension was administered once orally to SHR which had been kept under a fast condition for one night. A blood pressure and a heart rate were measured before administration and after one hour, three hours, five hours and seven hours of it and the maximum value of changes were calculated by comparing the value measured before administration with the value measured after administration.
For the purpose of a comparison, the same experiment as mentioned above was carried out on both Labetalol and Diltiazem as mentioned above.
With respect to a dosage, 100 mg/kg and 10 mg/kg as to compounds obtained by Examples 2, 5, 6, 9 and 18 to 23 were respectively administered, 100 mg/kg as to compounds obtained by Examples 1, 3, 4, 7 and 10 to 17 was respectively administered.

[2] = biological target: T1, calcium antagonism (thoracic aorta spiral specimen, contraction by calcium) (Cavia porcellus, UniProt O35505); assay: Calcium antagonistic effect (contraction response by calcium of spiral thoracic aorta specimen, Magnus method); set-up: species or system Hartly male giunea pig; conditions: guinea pig thoracic aorta; for Kb: antagonism of calcium contraction, read-out: Calcium antagonistic effect, pA2 value (converted)
T1 construct: from tissue; host or cells: thoracic aorta spiral strip of male Hartley guinea pig
Protocol: [Calcium antagonistic effect]
Using a spiral blood vessel specimen taken from a thoracic aorta of Hartly male giunea pig weighed 400 to 600 g, a contraction response by calcium was measured as a dose-response curve according to Magnus method and the antagonistic activity for each test compound was indicated as above-mentioned pA2 value.

[3] = biological target: T2, α-adrenergic blockade (vas deferens specimen, contraction by noradrenalin) (Rattus norvegicus, UniProt P43140); assay: α-Adrenergic blockade effect (contraction response by noradrenalin of vas deferens specimen, Magnus method); set-up: species or system Wister male rat; conditions: for Kb: rat vas deferens, antagonism of noradrenalin contraction, pA2 = negative logarithm of antagonist dose shifting agonist curve two times, read-out: α-Adrenergic blockade effect, pA2 value (converted)
T2 construct: from tissue; host or cells: vas deferens of six-week-old male Wistar rat
T2 sequence (P43140 1-466): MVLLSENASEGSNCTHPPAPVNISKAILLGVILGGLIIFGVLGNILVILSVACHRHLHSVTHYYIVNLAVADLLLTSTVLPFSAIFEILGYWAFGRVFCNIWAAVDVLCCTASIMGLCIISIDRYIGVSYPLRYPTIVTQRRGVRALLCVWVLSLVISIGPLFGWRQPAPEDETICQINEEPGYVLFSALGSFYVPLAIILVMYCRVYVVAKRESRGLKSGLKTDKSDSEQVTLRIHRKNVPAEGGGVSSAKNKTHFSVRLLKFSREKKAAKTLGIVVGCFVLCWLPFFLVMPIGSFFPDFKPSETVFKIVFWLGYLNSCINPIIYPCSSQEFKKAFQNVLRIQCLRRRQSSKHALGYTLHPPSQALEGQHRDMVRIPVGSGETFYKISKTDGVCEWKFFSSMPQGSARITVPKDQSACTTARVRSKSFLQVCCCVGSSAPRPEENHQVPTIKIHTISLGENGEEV

[4] = Accute toxicity test (LD50 value); conditions: mouse, in vivo; mice; single oral administration; deaths by seventh day; Litchfield-Wilcoxon
Protocol: [Accute toxicity test (LD50 value)]
The experiment was carried out using six weeks old ddy male mice.
Each of test compounds was suspended in an aqueous solution containing 5% by weight of acasia and the suspension was administered compulsorily once orally with a gastric probe. Within six hours after the start of the administration, the behavior of tested mice were observed consecutively. Thereafter, the observation was made at an interval of twenty four hours during 7 days and an accumulative number of deaths seventh day since the start of the administration was measured.
LD50 value was calculated according to the Litchfield-Wilcoxon method.

[5] = Increasing effect on a coronary blood flow (anesthetized dog); format: in vivo; conditions: administered once into perfusion channel
Protocol: [Increasing effect on a coronary blood flow]
Adult dog weighed 9 to 13 kg which was anesthetized intravenously with 30 mg/kg of pentobarbiturate was used for this experiment. The animal was cut open at a chest under a condition of an artificial respiration. After an intravenous injection of 1000 U/kg of heparin, a glass cannula was inserted into coronary ramus circumflexus by way of a left subclavina artery and a perfusion was carried out with blood introduced from a right carotid artery. A blood flow was measured by means of a electromagnetic flowmeter set up at a perfusion channel.
Each of test compounds was dissolved in a physiologic salt solution and the solution was administered once into a perfusion channel. An increase of a coronary blood flow was indicated as a percentage of an increasing rate.
For the purpose of a comparison, the same experiment as mentioned above was carried out on Papavelin which was commonly used as coronary vasodilator.

[6] = 10 mg/kg, maximum over 1, 3, 5, 7 hours (Table 2)
[7] = 100 mg/kg, maximum over 1, 3, 5, 7 hours (Table 2)
[8] = 100 mg/kg, maximum over 1, 3, 5, 7 hours (Table 3)

T1 sequence (O35505 whole entry): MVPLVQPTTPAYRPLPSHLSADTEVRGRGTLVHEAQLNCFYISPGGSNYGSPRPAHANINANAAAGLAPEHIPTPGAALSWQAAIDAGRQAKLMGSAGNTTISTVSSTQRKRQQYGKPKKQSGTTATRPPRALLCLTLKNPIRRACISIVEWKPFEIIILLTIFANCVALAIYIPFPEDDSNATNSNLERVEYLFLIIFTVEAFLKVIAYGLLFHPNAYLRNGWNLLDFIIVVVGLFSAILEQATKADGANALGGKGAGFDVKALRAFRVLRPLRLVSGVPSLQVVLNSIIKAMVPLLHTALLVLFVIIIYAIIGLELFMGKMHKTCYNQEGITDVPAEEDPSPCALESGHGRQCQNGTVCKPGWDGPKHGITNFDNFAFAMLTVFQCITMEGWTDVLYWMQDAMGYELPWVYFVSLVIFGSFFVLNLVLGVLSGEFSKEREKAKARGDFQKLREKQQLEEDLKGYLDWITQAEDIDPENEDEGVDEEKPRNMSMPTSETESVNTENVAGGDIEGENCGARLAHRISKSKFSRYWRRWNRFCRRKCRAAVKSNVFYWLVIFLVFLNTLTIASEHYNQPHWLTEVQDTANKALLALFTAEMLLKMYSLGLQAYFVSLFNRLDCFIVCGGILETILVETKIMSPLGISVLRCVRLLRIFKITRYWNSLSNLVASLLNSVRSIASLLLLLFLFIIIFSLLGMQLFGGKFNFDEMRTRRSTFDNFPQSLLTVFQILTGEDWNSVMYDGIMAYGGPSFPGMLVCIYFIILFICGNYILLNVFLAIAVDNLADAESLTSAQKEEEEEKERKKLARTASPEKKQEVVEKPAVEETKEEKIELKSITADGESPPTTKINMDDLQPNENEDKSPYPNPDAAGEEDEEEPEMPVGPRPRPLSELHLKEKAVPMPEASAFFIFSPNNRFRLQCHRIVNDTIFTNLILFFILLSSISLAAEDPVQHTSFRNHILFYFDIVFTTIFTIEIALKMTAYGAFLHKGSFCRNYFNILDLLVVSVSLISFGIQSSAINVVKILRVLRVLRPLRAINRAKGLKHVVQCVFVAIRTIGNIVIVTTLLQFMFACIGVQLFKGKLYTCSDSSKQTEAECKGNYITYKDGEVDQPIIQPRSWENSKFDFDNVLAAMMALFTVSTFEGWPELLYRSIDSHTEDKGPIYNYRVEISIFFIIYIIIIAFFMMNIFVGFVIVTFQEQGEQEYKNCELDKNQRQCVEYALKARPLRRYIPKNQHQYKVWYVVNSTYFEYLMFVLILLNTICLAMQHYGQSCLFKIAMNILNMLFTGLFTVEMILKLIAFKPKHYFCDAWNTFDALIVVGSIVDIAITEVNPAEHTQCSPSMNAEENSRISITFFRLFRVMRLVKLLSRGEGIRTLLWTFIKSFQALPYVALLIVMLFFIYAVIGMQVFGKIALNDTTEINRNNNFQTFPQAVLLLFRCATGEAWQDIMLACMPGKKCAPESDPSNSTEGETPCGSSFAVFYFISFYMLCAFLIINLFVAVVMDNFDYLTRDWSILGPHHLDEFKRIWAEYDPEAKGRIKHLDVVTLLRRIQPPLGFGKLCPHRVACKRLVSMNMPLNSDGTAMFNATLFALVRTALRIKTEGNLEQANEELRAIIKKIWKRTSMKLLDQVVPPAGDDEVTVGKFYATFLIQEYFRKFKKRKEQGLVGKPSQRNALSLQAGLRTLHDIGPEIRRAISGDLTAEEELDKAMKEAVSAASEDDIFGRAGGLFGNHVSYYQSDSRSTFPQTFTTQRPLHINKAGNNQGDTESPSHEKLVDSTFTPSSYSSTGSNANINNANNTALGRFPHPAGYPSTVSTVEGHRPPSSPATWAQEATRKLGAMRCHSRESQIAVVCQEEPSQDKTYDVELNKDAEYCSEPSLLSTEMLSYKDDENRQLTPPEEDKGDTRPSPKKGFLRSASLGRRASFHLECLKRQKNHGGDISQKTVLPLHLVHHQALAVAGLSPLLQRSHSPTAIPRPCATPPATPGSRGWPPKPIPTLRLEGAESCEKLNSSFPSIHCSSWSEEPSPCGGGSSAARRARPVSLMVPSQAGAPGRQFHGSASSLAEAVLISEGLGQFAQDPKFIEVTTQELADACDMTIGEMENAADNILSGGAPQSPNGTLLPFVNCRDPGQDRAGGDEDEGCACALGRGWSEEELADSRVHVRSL

Row | SMILES | Maximum value of change, heart rate [1, 6] [beats/min] | Maximum value of change, systolic pressure [1, 6] [mmHg] | Maximum value of change, heart rate [1, 7] [beats/min] | Maximum value of change, systolic pressure [1, 7] [mmHg] | Kb [2] [nM] | Kb [3] [nM] | LD50 at 168 h [4] [mg/kg] | Increasing rated of coronary blood flow when administered with a 1 mg [5] [%] | Calcium antagonistic effect, relative ratio as compared with Diltiazem ([2]; Diltiazem = 1.0) | α-Adrenergic blockade effect, relative ratio as compared with Phentolamine [3] | Maximum value of change, heart rate [1, 8] [beats/min] | Maximum value of change, systolic pressure [1, 8] [mmHg]
1 | COc1ccccc1N1CCN(CC(O)COc2cccc3cc(C(C)O)oc23)CC1 (centres unmarked) [Ex. 22, 2-(1-hydroxyethyl)-7-{2-hydroxy-3-[4-(2-methoxyphenyl)piperazinyl]propoxy}benzofuran] | -149.2 ± 15.3 | -42.8 ± 6.7 | -160.2 ± 19.8 | -69.5 ± 7.9 | 1050 | 50.1 | > 1500 | 87.7 ± 9.4 | – | – | – | –
2 | COc1ccccc1N1CCN(CC(O)COc2ccc3oc(C(C)=O)cc3c2)CC1 (centres unmarked) [Ex. 5 (HCl salt)] | – | – | – | – | 46.8 | 49 | > 1500 | 107.5 ± 6.5 | 1.9 | 3.2 | – | –
3 | COc1ccccc1N1CCN(CC(O)COc2cccc3cc(C(N)=O)oc23)CC1 (centres unmarked) [Ex. 9, 2-carbamoyl-7-{2-hydroxy-3-[4-(2-methoxyphenyl)-piperazinyl]propoxy}benzofuran] | -154.2 ± 17.3 | -61.2 ± 4.3 | -69.2 ± 12.1 | -75.6 ± 2.4 | 631 | 27.5 | > 1500 | 105.6 ± 11.8 | – | – | – | –
4 | CC(=O)c1cc2cccc(OCC(O)CN3CCN(c4cccc(Cl)c4)CC3)c2o1 (centres unmarked) [Ex. 8 (HCl salt), 2-acetyl-7-{3-[4-(3-chlorophenyl)piperazinyl]-2-hydroxypropoxy}benzofuran] | – | – | – | – | 85.1 | 468 | > 1000 | 96.3 ± 13.1 | – | – | -98.4 ± 17.2 | -44.2 ± 8.4
5 | COc1ccccc1N1CCN(CC(O)COc2ccc3cc(C(C)=O)oc3c2)CC1 (centres unmarked) [Ex. 4 (HCl salt), 2-acetyl-6-{2-hydroxy-3-[4-(2-methoxyphenyl)piperazinyl]-propoxy}benzofuran] | – | – | – | – | 525 | 22.4 | > 1000 | – | – | – | -172.5 ± 23.9 | -114.2 ± 1.7
6 | Cc1ccccc1N1CCN(CC(O)COc2ccc3cc(C(N)=O)oc3c2)CC1 (centres unmarked) [Ex. 14, 2-carbamoyl-6-{2-hydroxy-3-[4-(2-methylphenyl)piperazinyl]-propoxy}benzofuran] | – | – | – | – | 182 | 110 | > 1000 | – | – | – | -132.9 ± 28.8 | -67.3 ± 6.8
7 | COc1ccc(Cc2nccc3cc(OC)c(OC)cc23)cc1OC [papavelin, Papavelin, reference compound] | – | – | – | – | – | – | – | 136.3 ± 27.0 | – | – | – | –
8 | Cc1ccccc1N1CCN(CC(O)COc2cccc3cc(C(C)O)oc23)CC1 (centres unmarked) [Ex. 23, 2-(1-hydroxyethyl)-7-{2-hydroxy-3-[4-(2-methylphenyl)piperazinyl]propoxy}benzofuran] | -93.4 ± 17.6 | -54.9 ± 9.4 | -131.4 ± 22.3 | -73.1 ± 9.2 | 589 | 77.6 | > 1000 | – | – | – | – | –
9 | CC(=O)c1cc2cccc(OCC(O)CN3CCN(c4ccccc4)CC3)c2o1 (centres unmarked) [Ex. 1 (HCl salt), 2-acetyl-7-[3-(4-phenylpiperazinyl)-2-hydroxypropoxy]benzofuran] | – | – | – | – | 2950 | 209 | > 1000 | – | – | – | -105.8 ± 3.4 | -74.6 ± 5.6
10 | COc1ccccc1N1CCN(CC(O)COc2cccc3cc(C#N)oc23)CC1 (centres unmarked) [Ex. 16 (HCl salt), 2-cyano-7-{2-hydroxy-3-[4-(2-methoxyphenyl)piperazinyl]-propoxy} benzofuran] | – | – | – | – | 513 | 42.7 | 900 | – | – | – | -189.6 ± 26.8 | -13.3 ± 4.6
11 | COc1ccccc1N1CCN(CC(O)COc2ccc3cc(C(N)=O)oc3c2)CC1 (centres unmarked) [Ex. 11, 2-carbamoyl-6-{2-hydroxy-3-[4-(2-methoxyphenyl)piperazinyl]propoxy}benzofuran] | – | – | – | – | 158 | 57.5 | > 1500 | – | – | – | -126.5 ± 27.3 | -78.8 ± 7.6
12 | COc1ccccc1N1CCN(CC(O)COc2cccc3cc(C(C)=O)oc23)CC1 (centres unmarked) [Ex. 2 (HCl salt), 2-acetyl-7-{2-hydroxy-3-[4-(2-methoxyphenyl)piperazinyl]-propoxy}benzofuran] | – | – | – | – | 195 | 38.9 | – | 88.4 ± 14.2 | – | – | – | –
13 | NC(=O)c1cc2cccc(OCC(O)CN3CCN(c4cccc(Cl)c4)CC3)c2o1 (centres unmarked) [Ex. 15] | – | – | – | – | 398 | 3020 | > 1000 | – | – | – | -100.0 ± 19.5 | -79.9 ± 11.9
14 | COc1ccccc1N1CCN(CC(O)COc2ccc3cc(C#N)oc3c2)CC1 (centres unmarked) [Ex. 17 (HCl salt), 2-cyano-6-{2-hydroxy-3-[4-(2-methoxyphenyl)piperazinyl]propoxy}benzofuran] | – | – | – | – | 115 | 204 | 900 | – | – | – | -154.5 ± 21.1 | -40.5 ± 6.6
